In paper PMC10052977, “α,ω-Diacyl-Substituted Analogues of Natural and Unnatural Polyamines: Identification of Potent Bactericides That Selectively Target Bacterial Membranes” (International Journal of Molecular Sciences, 2023):
Converted amounts (≈) assume the structure as drawn. Read-outs that look alike come from different tables or passages of the source.

Columns and labels:
[1] = test system: Staphylococcus aureus ATCC 25923 or ATCC 29213; test: MIC, broth dilution (CA-SFM); format: cell-based; settings: Staphylococcus aureus ATCC 25923 or ATCC 29213; mean (n = 3); read-out: MIC S. a
[2] = test system: Pseudomonas aeruginosa PAO1 or ATCC 27853; test: MIC, broth dilution (CA-SFM); format: cell-based; settings: mean (n = 3)
[3] = test system: Cryptococcus neoformans ATCC208821; test: Antifungal MIC, CO-ADD; format: cell-based; settings: ATCC208821, Cryptococcus neoformans ATCC208821, mean (n = 2)
Experimental: (§1) For the antifungal assay, fungi strains were cultured for 3 days on YPD agar at 30 °C. A yeast suspension of 1 × 10^6 to 5 × 10^6 CFU/mL was prepared from five colonies. These stock suspensions were diluted with yeast nitrogen base (YNB) (Becton Dickinson, 233520) broth to a final concentration of 2.5 × 10^3 CFU/mL. […] Plates were covered and incubated at 35 °C for 36 h without shaking. C. albicans MICs were determined by measuring the absorbance at OD530. […] Fluconazole was used as a positive fungal inhibitor standard for C. albicans and C. neoformans. […] Quality control (QC) of the assays was determined by antimicrobial controls and Z’-factor (using positive and negative controls).

[4] = test system: Candida albicans ATCC90028; test: Antifungal MIC, CO-ADD; format: cell-based; settings: mean (n = 2)
Experimental: as §1

[5] = test system: MRSA ATCC 43300; test: MIC, CO-ADD broth microdilution; format: cell-based, Staphylococcus aureus; settings: for MIC: Staphylococcus aureus, read-out: MIC MRSA
[6] = test system: Acinetobacter baumannii ATCC19606; test: MIC, CO-ADD broth microdilution; format: cell-based; settings: mean (n = 2)
[7] = test system: human red blood cells; test: Hemolytic assay; format: cell-based; settings: mean (n = 2)
Experimental: Human whole blood was washed three times with 3 volumes of 0.9% NaCl and then resuspended in same to a concentration of 0.5 × 10^8 cells/mL, as determined by manual cell count in a Neubauer hemocytometer. The washed cells were then added to the 384-well compound-containing plates for a final volume of 50 μL. After a 10 min shake on a plate shaker, the plates were then incubated for 1 h at 37 °C. After incubation, the plates were centrifuged at 1000× g for 10 min to pellet cells and debris; 25 μL of the supernatant was then transferred to a polystyrene 384-well assay plate. Hemolysis was determined by measuring the supernatant absorbance at […] (OD405). The absorbance was measured using a Tecan M1000 Pro monochromator plate reader. HC10 and HC50 (concentration at 10% and 50% hemolysis, respectively) were calculated by curve fitting the inhibition values vs. log (concentration) using a sigmoidal dose–response function with variable fitting values for top, bottom and slope.

[8] = Cytotoxicity assay (resazurin); format: cell-based, human; settings: human; HEK293 cells; mean (n = 2); highest dose tested 32 μg/mL; read-out: Cytotoxicity (concentration of compound at 50% cytotoxicity, IC50)
[9] = test system: Klebsiella pneumoniae ATCC700603; test: MIC, CO-ADD broth microdilution; format: cell-based; settings: mean (n = 2)
[10] = test system: Escherichia coli ATCC 25922; test: MIC, CO-ADD broth microdilution; format: cell-based; settings: ATCC25922, mean (n = 2)

MIC [1]	MIC [2]	MIC [3]	MIC [4]	MIC ([5]; MRSA ATCC 43300, mean (n = 2))	MIC [6]	MIC [9]	MIC [10]	Structure (SMILES)	Hemolysis (HC10, concentration at 10% hemolytic activity) [7]	IC50 at 20 h [8]	activity towards MRSA [5]	MIC [5]
> 265 µM	265 µM	> 42.4 µM	≤ 0.33 µM	≤ 0.33 µM	10.7 µM	> 42.4 µM	≤ 0.33 µM	Cl.Cl.S=C(NCCCNCCCCCCNCCCNC(=S)NC(c1ccccc1)c1ccccc1)NC(c1ccccc1)c1ccccc1 [Compound 6b, N^1,N^6-Bis(3-(3-benzhydrylthioureido)propyl)hexane-1,6-diaminium chloride]	2.96 µM	> 42.4 µM		
720 µM (≈ 336 µg/mL)	720 µM (≈ 336 µg/mL)	> 46.1 µM	> 46.1 µM	> 46.1 µM	> 46.1 µM	> 46.1 µM	> 46.1 µM	O=C(CCc1ccccc1)NCCCNCCCCNCCCNC(=O)CCc1ccccc1 [Compound 13a, N^1,N^4-Bis(3-(3-phenylpropanamido)propyl)butane-1,4-diaminium 2,2,2-trifluoroacetate]				
> 277 µM	> 277 µM	> 44.3 µM	> 44.3 µM	> 44.3 µM	> 44.3 µM	> 44.3 µM	> 44.3 µM	O=C(CCc1ccccc1)NCCCNCCCCCCNCCCNC(=O)CCc1ccccc1.O=C(O)C(F)(F)F.O=C(O)C(F)(F)F [Compound 13b, N^1,N^6-Bis(3-(3-phenylpropanamido)propyl)hexane-1,6-diaminium 2,2,2-trifluoroacetate]	>44.3 µM	> 44.3 µM		
> 271 µM	> 271 µM	> 43.4 µM	> 43.4 µM	> 43.4 µM	> 43.4 µM	> 43.4 µM	> 43.4 µM	O=C(CCc1ccccc1)NCCCNCCCCCCCNCCCNC(=O)CCc1ccccc1.O=C(O)C(F)(F)F.O=C(O)C(F)(F)F [Compound 13c, N^1,N^7-Bis(3-(3-phenylpropanamido)propyl)heptane-1,7-diaminium 2,2,2-trifluoroacetate]	>43.4 µM	> 43.4 µM		
> 266 µM	> 266 µM	> 42.6 µM	> 42.6 µM	> 42.6 µM	> 42.6 µM	> 42.6 µM	> 42.6 µM	O=C(CCc1ccccc1)NCCCNCCCCCCCCNCCCNC(=O)CCc1ccccc1.O=C(O)C(F)(F)F.O=C(O)C(F)(F)F [Compound 13d, N^1,N^8-Bis(3-(3-phenylpropanamido)propyl)octane-1,8-diaminium 2,2,2-trifluoroacetate]	>42.6 µM	> 42.6 µM		
32 µM	642 µM	41.1 µM	> 41.1 µM	10.3 µM	> 41.1 µM	> 41.1 µM	41.1 µM	O=C(CCc1ccccc1)NCCCNCCCCCCCCCCNCCCNC(=O)CCc1ccccc1.O=C(O)C(F)(F)F.O=C(O)C(F)(F)F [Compound 13e, N^1,N^10-Bis(3-(3-phenylpropanamido)propyl)decane-1,10-diaminium 2,2,2-trifluoroacetate]	>41.1 µM	> 41.1 µM	weak	
50 µM	300 µM	> 39.7 µM	> 39.7 µM	19.8 µM	> 39.7 µM	> 39.7 µM	> 39.7 µM	O=C(CCc1ccccc1)NCCCNCCCCCCCCCCCCNCCCNC(=O)CCc1ccccc1.O=C(O)C(F)(F)F.O=C(O)C(F)(F)F [Compound 13f, N^1,N^12-Bis(3-(3-phenylpropanamido)propyl)dodecane-1,12-diaminium 2,2,2-trifluoroacetate]	>39.7 µM	> 39.7 µM	weak	
100 µM	> 200 µM	> 37 µM	> 37 µM	> 37 µM	> 37 µM	> 37 µM	> 37 µM	O=C(CCC(=O)NCCCc1ccccc1)NCCCNCCCCNCCCNC(=O)CCC(=O)NCCCc1ccccc1.O=C(O)C(F)(F)F.O=C(O)C(F)(F)F [Compound 14a, N^1,N^4-Bis(3-(4-oxo-4-((3-phenylpropyl)amino)butanamido)propyl)butane-1,4-diaminium 2,2,2-trifluoroacetate]	>37 µM	> 37 µM		
> 200 µM	> 200 µM	> 35.8 µM	> 35.8 µM	> 35.8 µM	> 35.8 µM	> 35.8 µM	> 35.8 µM	O=C(CCC(=O)NCCCc1ccccc1)NCCCNCCCCCCNCCCNC(=O)CCC(=O)NCCCc1ccccc1 [Compound 14b, N^1,N^6-Bis(3-(4-oxo-4-((3-phenylpropyl)amino)butanamido)propyl)hexane-1,6-diaminium 2,2,2-trifluoroacetate]				
200 µM (≈ 136 µg/mL)	> 200 µM	> 35.3 µM	> 35.3 µM	> 35.3 µM	> 35.3 µM	> 35.3 µM	> 35.3 µM	O=C(CCC(=O)NCCCc1ccccc1)NCCCNCCCCCCCNCCCNC(=O)CCC(=O)NCCCc1ccccc1 [Compound 14c, N^1,N^7-Bis(3-(4-oxo-4-((3-phenylpropyl)amino)butanamido)propyl)heptane-1,7-diaminium 2,2,2-trifluoroacetate]				
> 100 µM	> 100 µM	> 34.7 µM	> 34.7 µM	> 34.7 µM	> 34.7 µM	> 34.7 µM	> 34.7 µM	O=C(CCC(=O)NCCCc1ccccc1)NCCCNCCCCCCCCNCCCNC(=O)CCC(=O)NCCCc1ccccc1.O=C(O)C(F)(F)F.O=C(O)C(F)(F)F [Compound 14d, N^1,N^8-Bis(3-(4-oxo-4-((3-phenylpropyl)amino)butanamido)propyl)octane-1,8-diaminium 2,2,2-trifluoroacetate]	>34.7 µM	> 34.7 µM		
100 µM	> 200 µM	33.7 µM	> 33.7 µM	4.21 µM	> 33.7 µM	> 33.7 µM	33.7 µM	O=C(CCC(=O)NCCCc1ccccc1)NCCCNCCCCCCCCCCNCCCNC(=O)CCC(=O)NCCCc1ccccc1.O=C(O)C(F)(F)F.O=C(O)C(F)(F)F [Compound 14e, N^1,N^10-Bis(3-(4-oxo-4-((3-phenylpropyl)amino)butanamido)propyl)decane-1,10-diaminium 2,2,2-trifluoroacetate]	>33.7 µM	> 33.7 µM	weak	
								CC/C(=C(\c1ccccc1)c1ccc(OCCN(C)C)cc1)c1ccccc1 [Tamoxifen, reference compound]		24 µM		
	90 µM (≈ 40 µg/mL)							C[C@H]1c2cccc(O)c2C(=O)C2=C(O)[C@]3(O)C(=O)C(C(N)=O)=C(O)[C@@H](N(C)C)[C@@H]3[C@@H](O)[C@@H]21 [doxycycline, reference compound]				
								CN[C@H](CC(C)C)C(=O)N[C@H]1C(=O)N[C@@H](CC(N)=O)C(=O)N[C@H]2C(=O)N[C@H]3C(=O)N[C@H](C(=O)N[C@H](C(=O)O)c4cc(O)cc(O)c4-c4cc3ccc4O)[C@H](O)c3ccc(c(Cl)c3)Oc3cc2cc(c3O[C@@H]2O[C@H](CO)[C@@H](O)[C@H](O)[C@H]2O[C@H]2C[C@](C)(N)[C@H](O)[C@H](C)O2)Oc2ccc(cc2Cl)[C@H]1O [vancomycin, reference compound]				0.7 µM (≈ 1.01 µg/mL)

Structure (SMILES)	MIC [1]	MIC [2]	MIC [3]	MIC [4]	MIC ([5]; MRSA ATCC 43300, mean (n = 2))	MIC [6]	MIC [9]	MIC [10]	Hemolysis (HC10, concentration at 10% hemolytic activity) [7]	IC50 at 20 h [8]	activity towards MRSA [5]	MIC [5]
O=C(N[C@H](CO)[C@H](O)c1ccc([N+](=O)[O-])cc1)C(Cl)Cl [chloramphenicol, reference compound]	1.5 to 3 µM (≈ 0.485 to 0.969 µg/mL)											
OC(Cn1cncn1)(Cn1cncn1)c1ccc(F)cc1F [fluconazole, reference compound]			26 µM (≈ 7.96 µg/mL)	0.4 µM (≈ 0.123 µg/mL)								
[H]/N=C(/N)N[C@H]1[C@H](O)[C@@H](O)[C@H](O[C@@H]2O[C@@H](C)[C@](O)(C=O)[C@H]2O[C@@H]2O[C@@H](CO)[C@H](O)[C@@H](O)[C@@H]2NC)[C@@H](N/C(N)=N\[H])[C@@H]1O [streptomycin, reference compound]	21.5 µM (≈ 12.5 µg/mL)	21.5 µM (≈ 12.5 µg/mL)										
